We go through 27 compounds from patent US9815796B2 (Merck Sharp & Dohme Corp., priority 2013, dated 2017).

One test concerns the target human PDE2A1 (Homo sapiens (Human), UniProt O00408). Put plainly: IMAP FP PDE selectivity panel, human PDE2A1. The test is classed as biochemical. The method in brief:
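IMAP FP format: substrate 50 nM FAM-cAMP plus 1000 nM cGMP, enzyme (insect-cell GST-tagged human PDE2A1) at ~20% conversion, 60 min reaction at room temperature. Apparent inhibition constants calculated from parallel/perpendicular fluorescence with KM 10,000 nM.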

Another test deals with Rhesus PDE2A3 (Macaca mulatta, UniProt B3VTJ2). Put plainly: PDE2 fluorescence polarization (IMAP FP) inhibition assay, rhesus enzyme. The test is classed as biochemical, rhesus macaque. The gist of the method: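 IMAP FP (mP from parallel and perpendicular fluorescence against substrate-only control) was read ≥1 h after adding binding reagent. The preceding 60 min room-temperature reaction contained FAM-cAMP (50 nM) and cGMP (1 uM) in pH 7.2 Tris buffer with MgCl2 and DTT. Enzyme was supernatant of sonicated AD293 cells expressing rhesus PDE2A3; compounds were 3-fold titrated, DMSO 1% final.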

[1] abbreviates: Human PDE2, Lab B, read-out: Human PDE2 Ki (nM) - Lab B.
Setting [2] is: Rhesus PDE2, Lab B, read-out: Rhesus PDE2 Ki (nM) - Lab B.
The mark [3] stands for this setting: Human PDE2, Lab A, read-out: Human PDE2 Ki (nM) - Lab A.
Where [4] appears, read: Rhesus PDE2, Lab A, read-out: Rhesus PDE2 Ki (nM) - Lab A.

The structures appear in SMILES notation. Where two headings read alike, the source gives them in different places.

In general, Ki refers to the dissociation constant of the complex between target and ligand, obtained from inhibition or displacement.

Chain of human PDE2A1 (O00408 other isoform, or with tags, fused parts or gaps): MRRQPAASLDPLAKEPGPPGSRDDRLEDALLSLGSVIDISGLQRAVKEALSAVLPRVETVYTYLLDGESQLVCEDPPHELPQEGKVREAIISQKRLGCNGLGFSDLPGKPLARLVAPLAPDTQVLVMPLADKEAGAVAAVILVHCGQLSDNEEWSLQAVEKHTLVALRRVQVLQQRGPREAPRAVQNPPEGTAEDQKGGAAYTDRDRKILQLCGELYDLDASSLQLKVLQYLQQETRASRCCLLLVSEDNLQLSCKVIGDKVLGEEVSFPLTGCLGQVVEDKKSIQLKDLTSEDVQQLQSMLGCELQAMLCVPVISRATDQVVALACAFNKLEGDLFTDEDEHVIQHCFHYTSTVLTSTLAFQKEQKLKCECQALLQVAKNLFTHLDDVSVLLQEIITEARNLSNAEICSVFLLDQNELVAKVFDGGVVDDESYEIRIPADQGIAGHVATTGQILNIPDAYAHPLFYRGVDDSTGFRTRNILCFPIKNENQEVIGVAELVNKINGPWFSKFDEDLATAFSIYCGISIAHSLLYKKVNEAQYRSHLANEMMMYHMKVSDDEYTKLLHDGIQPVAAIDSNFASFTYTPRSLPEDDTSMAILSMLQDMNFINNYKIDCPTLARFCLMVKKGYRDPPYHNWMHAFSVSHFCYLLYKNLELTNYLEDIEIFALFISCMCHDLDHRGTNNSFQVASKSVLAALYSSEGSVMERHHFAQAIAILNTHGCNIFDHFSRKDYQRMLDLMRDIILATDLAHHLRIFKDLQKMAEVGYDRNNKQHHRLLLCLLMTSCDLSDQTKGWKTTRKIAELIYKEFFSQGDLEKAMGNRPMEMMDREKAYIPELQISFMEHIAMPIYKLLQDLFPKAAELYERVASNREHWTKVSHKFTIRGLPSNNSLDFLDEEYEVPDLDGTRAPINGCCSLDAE
Chain of Rhesus PDE2A3 (B3VTJ2 1-941): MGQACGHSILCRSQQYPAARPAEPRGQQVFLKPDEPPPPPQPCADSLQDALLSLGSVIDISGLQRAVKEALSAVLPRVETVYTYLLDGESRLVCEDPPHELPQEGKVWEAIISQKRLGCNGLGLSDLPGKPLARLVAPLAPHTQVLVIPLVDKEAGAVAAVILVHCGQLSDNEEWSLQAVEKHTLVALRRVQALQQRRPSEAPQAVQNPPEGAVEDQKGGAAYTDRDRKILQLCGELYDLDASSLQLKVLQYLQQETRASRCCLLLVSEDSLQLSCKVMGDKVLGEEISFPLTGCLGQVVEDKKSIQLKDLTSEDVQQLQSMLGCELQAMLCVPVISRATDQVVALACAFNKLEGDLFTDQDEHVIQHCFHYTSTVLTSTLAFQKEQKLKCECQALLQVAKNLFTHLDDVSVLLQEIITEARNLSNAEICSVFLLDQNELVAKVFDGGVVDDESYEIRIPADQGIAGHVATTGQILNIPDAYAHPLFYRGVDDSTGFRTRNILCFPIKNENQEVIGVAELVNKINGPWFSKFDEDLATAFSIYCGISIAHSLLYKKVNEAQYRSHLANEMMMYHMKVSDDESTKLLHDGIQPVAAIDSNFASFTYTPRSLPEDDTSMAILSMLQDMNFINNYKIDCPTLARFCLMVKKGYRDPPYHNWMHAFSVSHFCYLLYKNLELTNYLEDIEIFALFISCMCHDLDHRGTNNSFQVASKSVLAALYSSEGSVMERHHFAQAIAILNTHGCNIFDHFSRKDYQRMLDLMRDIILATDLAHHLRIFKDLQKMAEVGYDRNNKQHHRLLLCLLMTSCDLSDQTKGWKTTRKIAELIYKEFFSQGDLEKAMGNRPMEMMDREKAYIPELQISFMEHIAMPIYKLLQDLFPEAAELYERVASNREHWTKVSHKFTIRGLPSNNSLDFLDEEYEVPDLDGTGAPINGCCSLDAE

Take `O=C(NC1(c2ccc(C(F)(F)F)cc2)CCCC1)c1cc(=O)[nH]c(-c2ccccc2)n1` [Example 415, 6-oxo-2-phenyl-N-{1-[4-(trifluoromethyl)phenyl]cyclopentyl}-1,6-dihydropyrimidine-4-carboxamide]: the Ki amounted to 30 nM at human PDE2A1 (setting [1]) and 29 nM at Rhesus PDE2A3 (setting [2]).

For `CC(C)[C@@H](NC(=O)c1cc(=O)[nH]c(-c2ccccc2)n1)c1ccc(SC(F)(F)F)cc1` [Example 419, N-[(1R)-2-methyl-1-{4-[(trifluoromethyl)sulfanyl]phenyl}pro-pyl]-6-oxo-2-phenyl-1,6-dihydropyrimidine-4-carboxamide], the Ki at human PDE2A1 (setting [1]) came out at 2.9 nM; on Rhesus PDE2A3 (setting [2]), 3.3 nM.

Consider `O=C(NC1(c2ccc(C(F)(F)F)cc2)CC1)c1cc(=O)[nH]c(-c2ccccc2)n1` [Example 276, 6-oxo-2-phenyl-N-{1-[4-(trifluoromethyl)phenyl]cyclopropyl}-1,6-dihydropyrimidine-4-carboxamide], for which the Ki on human PDE2A1 (setting [3]) was determined as 3.8 nM; at Rhesus PDE2A3 (setting [4]), 4.2 nM.

Consider `Cc1nc(C(=O)N[C@@H](c2ccc(C(C)(C)C)cc2)C2(C)CC2)cc(=O)[nH]1` [Example 614, N-[(R)-(4-tert-butylphenyl)(1-methylcyclopropyl)methyl]-2-methyl-6-oxo-1,6-dihydropyrimidine-4-carboxamide], for which the Ki worked out at 17 nM on human PDE2A1 (setting [1]) and 20 nM at Rhesus PDE2A3 (setting [2]).

In the case of `COc1ccc(Cc2nc(C(=O)N[C@@H](c3ccc(C(F)(F)F)cc3)C(C)C)cc(=O)[nH]2)cc1F` [Example 516, 2-(3-fluoro-4-methoxybenzyl)-N-{(1R)-2-methyl-1-[4-(trifluoromethyl)phenyl]propyl}-6-oxo-1,6-dihydropyrimidine-4-carboxamide], the Ki on human PDE2A1 (setting [1]) turned out to be 1.5 nM; at Rhesus PDE2A3 (setting [2]), 1.6 nM.

Regarding `C[C@@H](NC(=O)c1cc(=O)[nH]c(C2CC2)n1)c1ccc(SC(F)(F)F)c(F)c1` [Example 243, 2-cyclopropyl-N-[(1R)-1-{3-fluoro-4-[(trifluoromethyl)sulfanyl]phenyl}ethyl]-6-oxo-1,6-dihydropyrimidine-4-carboxamide], the Ki amounted to 5.8 nM on human PDE2A1 (setting [1]), 3.6 nM at Rhesus PDE2A3 (setting [4]) and 6.7 nM at Rhesus PDE2A3 (setting [2]).

As to `C[C@@H](NC(=O)c1cc(=O)[nH]c(-c2ncccn2)n1)c1ccc(C(F)(F)F)c(Cl)c1` [Example 110, N-{(1R)-1-[3-chloro-4-(trifluoromethyl)phenyl]ethyl}-6-pxo-1,6-dihydro-2,2′-bipyrimidine-4-carboxamide], the Ki on human PDE2A1 (setting [3]) is 7.2 nM; on Rhesus PDE2A3 (setting [4]) it was 12 nM.

Take `COc1ccc(Cc2nc(C(=O)N[C@@H](c3ccc(OC(F)(F)F)cc3)C(C)C)cc(=O)[nH]2)cc1` [Example 475, 2-(4-methoxybenzyl)-N-{(1R)-2-methyl-1-[4-(trifluoromethoxy)phenyl]propyl}-6-oxo-1,6-dihydropyrimidine-4-carboxamide]: the Ki at human PDE2A1 (setting [1]) and on Rhesus PDE2A3 (setting [2]) was 1.3 nM throughout.

`Cc1nc(C(=O)N[C@H](C)c2ccc(SC(F)(F)F)cc2)cc(=O)[nH]1` [Example 66, 2-methyl-6-oxo-N-[(1R)-1-{4-[(trifluoromethyl)sulfanyl]phenyl}ethyl]-1,6-dihydropyrimidine-4-carboxamide]: the Ki at human PDE2A1 (setting [3]) came to 5.8 nM; on Rhesus PDE2A3 (setting [4]), 11 nM.

For `O=C(N[C@@H](c1ccc(SC(F)(F)F)c(F)c1)C1CC1)c1cc(=O)[nH]c(C2CC2)n1` [Example 434], the Ki turned out to be 7.9 nM at human PDE2A1 (setting [1]) and 6.7 nM at Rhesus PDE2A3 (setting [2]).

For `O=C(N[C@@H](c1ccc(S(F)(F)(F)(F)F)cc1)C1CC1)c1cc(=O)[nH]c(-c2ncccn2)n1` [Example 412, N-{(R)-cyclopropyl[4-(pentafluoro-λ^6-sulfanyl)phenyl]methyl}-6-oxo-1,6-dihydro-2,2′-bipyrimidine-4-carboxamide], the values for the Ki on human PDE2A1 (setting [1]) and on Rhesus PDE2A3 (setting [2]) were 10 nM and 9.9 nM, respectively.

Turning to `Cc1nc(C(=O)NC2(c3ccc(OC(F)(F)F)cc3)CCC2)cc(=O)[nH]1` [Example 269], the inhibitory constant (Ki) on human PDE2A1 (setting [3]) was found to be 118 nM; on human PDE2A1 (setting [1]) it was 96 nM; on Rhesus PDE2A3 (setting [4]), 158 nM.

Regarding `Cc1nc(C(=O)N[C@@H](c2ccc(C3CC3)cc2)C2CC2)cc(=O)[nH]1` [Example 50, N-[(R)-cyclopropyl(4-cyclopropylphenyl)methyl]-2-methyl-6-oxo-1,6-dihydropyrimidine-4-carboxamide], the inhibitory constant (Ki) on human PDE2A1 (setting [1]) came to 8.1 nM; at Rhesus PDE2A3 (setting [4]), 8 nM; on Rhesus PDE2A3 (setting [2]), 11 nM.

On to `O=C(NC1(c2ccc(SC(F)(F)F)cc2)CC1)c1cc(=O)[nH]c(-c2ncccn2)n1` [Example 77, 6-oxo-N-(1-{4-[(trifluoromethyl)sulfanyl]phenyl}cyclopropyl)-1,6-dihydro-2,2′-bipyrimidine-4-carboxamide], for which the figures for the Ki on human PDE2A1 (setting [1]), on Rhesus PDE2A3 (setting [4]) and at Rhesus PDE2A3 (setting [2]) were 21 nM, 19 nM and 14 nM, respectively.

As to `CC(NC(=O)c1cc(=O)[nH]c(-c2ncccn2)n1)c1ccc(Br)cc1` (centres unmarked) [Example 85, N-[1-(4-bromophenyl)ethyl]-6-oxo-1,6-dihydro-2,2′-bipyrimidine-4-carboxamide], the Ki at human PDE2A1 (setting [3]) was 41 nM; at Rhesus PDE2A3 (setting [4]), 60 nM.

In the case of `Cc1nc(C(=O)NC(c2ccc(C(F)(F)F)cc2)c2nnn[nH]2)cc(=O)[nH]1` (centres unmarked) [Example 336, 2-Methyl-6-oxo-N-{1H-tetrazol-5-yl[4-(trifluoromethyl)phenyl]methyl}-1,6-dihydropyrimidine-4-carboxamide], the Ki at human PDE2A1 (setting [3]) was 59 nM; on Rhesus PDE2A3 (setting [4]) it was 60 nM.

Take `COc1ccc(C(C)(C)c2nc(C(=O)N[C@@H](c3ccc(OC(F)(F)F)cc3)C(C)C)cc(=O)[nH]2)cc1` [Example 494, 2-[1-(4-methoxyphenyl)-1-methylethyl]-N-{(1R)-2-methyl-1-[4-(trifluoromethoxy)phenyl]propyl}-6-oxo-1,6-dihydropyrimidine-4-carboxamide]: the Ki stood at 46 nM at human PDE2A1 (setting [1]) and 54 nM on Rhesus PDE2A3 (setting [2]).

Turning to `O=C(NC1(c2ccc(C(F)(F)F)cc2)CCC1)c1cc(=O)[nH]c(-c2ccccc2)n1` [Example 278, 6-oxo-2-phenyl-N-{1-[4-(trifluoromethyl)phenyl]cyclobutyl}-1,6-dihydropyrimidine-4-carboxamide], the Ki on human PDE2A1 (setting [3]) is 12 nM; at Rhesus PDE2A3 (setting [4]), 18 nM.

For `C[C@@H](NC(=O)c1cc(=O)[nH]c(-c2ncccn2)n1)c1ccc(-c2ccccc2)cc1` [Example 287, N-[(1R)-1-biphenyl-4-ylethyl]-6-oxo-1,6-dihydro-2,2′-bipyrimidine-4-carboxamide], the inhibition constant (Ki) was found to be 28 nM at human PDE2A1 (setting [3]) and 45 nM on Rhesus PDE2A3 (setting [4]).

Turning to `O=C(NCc1ccc(S(F)(F)(F)(F)F)cc1)c1cc(=O)[nH]c(-c2ccccc2)n1` [Example 377, 6-oxo-N-[4-(pentafluoro-λ^6-sulfanyl)benzyl]-2-phenyl-1,6-dihydropyrimidine-4-carboxamide], the figures for the Ki on human PDE2A1 (setting [1]) and at Rhesus PDE2A3 (setting [4]) were 58 nM and 28 nM, respectively.

Consider `COc1ccc(Cc2nc(C(=O)N[C@@H](c3ccc(C(F)(F)F)cc3)C(C)C)cc(=O)[nH]2)cc1` [Example 474, 2-(4-methoxybenzyl)-N-{(1R)-2-methyl-1-[4-(trifluoromethyl)phenyl]propyl}-6-oxo-1,6-dihydropyrimidine-4-carboxamide], for which the Ki at human PDE2A1 (setting [1]) amounted to 1.5 nM; on Rhesus PDE2A3 (setting [2]), 1.4 nM.

`Cc1nc(C(=O)NC2(c3ccc(SC(F)(F)F)cc3)CCC2)cc(=O)[nH]1` [Example 49, 2-methyl-6-oxo-N-(1-{4-[(trifluoromethyl)sulfanyl]phenyl}cyclobutyl)-1,6-dihydropyrimidine-4-carboxamide]: the Ki at human PDE2A1 (setting [3]) stood at 45 nM; at Rhesus PDE2A3 (setting [4]) it was 79 nM.

With `C[C@@H](NC(=O)c1cc(=O)[nH]c(C2CC2)n1)c1ccc(C(F)(F)F)c(F)c1` [Example 234, 2-cyclopropyl-N-{(1R)-1-[3-fluoro-4-(trifluoromethyl)phenyl]ethyl}-6-oxo-1,6-dihydropyrimidine-4-carboxamide], the results for the Ki on human PDE2A1 (setting [3]) and at Rhesus PDE2A3 (setting [4]) were 18 nM and 20 nM, respectively.

Consider `CC1(c2ccc(C(NC(=O)c3cc(=O)[nH]c(-c4ncccn4)n3)C(C)(C)C)cc2F)CC1` (single isomer, unassigned) [Example 717, (R)- or (S)-N-(1-(3-fluoro-4-(1-methylcyclopropyl)phenyl)-2,2-dimethylpropyl)-6-oxo-1,6-dihydro-[2,2′-bipyrimidine]-4-carboxamide], for which the inhibition constant Ki on human PDE2A1 (setting [1]) was 14 nM; at Rhesus PDE2A3 (setting [2]) it was 17 nM.

Regarding `COc1ccc(Cc2nc(C(=O)N[C@@H](c3ccc(SC(F)(F)F)cc3)C(C)(C)C)cc(=O)[nH]2)cc1` [Example 465, N-[(1R)-2,2-dimethyl-1-{4-[(trifluoromethyl)sulfanyl]phenyl}propyl]-2-(4-methoxybenzyl)-6-oxo-1,6-dihydropyrimidine-4-carboxamide], the Ki on human PDE2A1 (setting [1]) and on Rhesus PDE2A3 (setting [2]) was 0.62 nM in each case.

For the compound `CC(C)[C@@H](NC(=O)c1cc(=O)[nH]c(C2CC2)n1)c1ccc(SC(F)(F)F)c(F)c1` [Example 244, 2-cyclopropyl-N-[(1R)-1-{3-fluoro-4-[(trifluoromethyl)sulfanyl]phenyl}-2-methylpropyl]-6-oxo-1,6-dihydropyrimidine-4-carboxamide], the Ki on human PDE2A1 (setting [1]) came out at 3 nM; at Rhesus PDE2A3 (setting [4]), 0.99 nM; at Rhesus PDE2A3 (setting [2]), 2.4 nM.

With `Cc1nc(C(=O)N[C@H](C)c2ccc(C3CC3)c(F)c2)cc(=O)[nH]1` [Example 620, N-[(1R)-1-(4-cyclopropyl-3-fluorophenyl)ethyl]-2-methyl-6-oxo-1,6-dihydropyrimidine-4-carboxamide], the Ki is 19 nM on human PDE2A1 (setting [1]) and 15 nM on Rhesus PDE2A3 (setting [2]).
